Measured values: article PMC12589998, “Development and validation of a UHPLC-QqQ-MS/MS method for simultaneous determination of fifteen major components from Oroxyli seed extract in rat plasma and its application in the pharmacokinetic study” (Frontiers in Pharmacology, 2025)
Like-named read-outs stand apart in the source and are kept apart here.

Columns and labels:
[1] = Pharmacokinetic study in rats after oral administration of OS extract (UHPLC-QqQ-MS/MS of plasma); assay type: in vivo, rat; details: for concentration at 0.5 h / AUC(0-t) / AUC(0-inf) / Cmax / half-life / Tmax: male; for concentration at 0.5 h: SD; for AUC(0-t) / AUC(0-inf) / Cmax / half-life / Tmax: rat plasma, oral 3 g/kg OS extract, n = 6, mean ± SD; for AUC(0-t): read-out: AUC(0-t); for AUC(0-inf): read-out: AUC(0-∞); for Cmax: read-out: Cmax; for half-life: read-out: T1/2 (converted); for Tmax: read-out: Tmax
Description: The UHPLC-QqQ-MS/MS system consisted of a 1290 UHPLC and a 6470 mass spectrometer (Agilent Technologies). Chromatographic separation was realized on utilizing an ACQUITY UPLC BEH C18 column (2.1 × 100 mm, 1.7 μm) maintained at 35 °C. The mobile phase consisting of 0.1% formic acid in water (A) and acetonitrile (B) was utilized with the elution program set at 0 min–1 min, 5% B–30% B; 1 min–4 min, 30% B– 50% B; 4 min–8 min, and 50% B–90% B. The injection volume was 5 μL, and the flow rate was 0.3 mL/min. The mass spectrometry parameters in the negative ion mode, gas temperature, flow rate, and nebulizer pressure were 300 °C, 7 L/min, and 35 psi, respectively. The mass spectra properties of the 15 analytes and the IS are illustrated in Table 1.
To 100 μL of the plasma sample, 20 μL of methanol, 20 μL of IS solution (methylparaben, 1 μg/mL), and 5 μL of formic acid were added and vortexed for a duration of 2 min. Subsequently, the mixture underwent extraction with 800 μL of acetonitrile for 3 min. Following 10 min of centrifugation at 12,000 g, the supernatant was collected and evaporated to dryness under N2 to obtain the residue. Finally, the residue was reconstituted in 50% methanol (100 μL) and utilized for analysis.
Before initiating the study, six male SD rats underwent a 12-h fasting period, during which they were granted unrestricted access to water. Then, the rats were administered an oral dose of 3 g/kg of the OS extract, which had been dissolved in 0.5% CMC-Na aqueous solution. Blood samples, approximately 200 μL each, were collected at various time points: before administration and at 0.03, 0.08, 0.17, 0.25, 0.5, 0.75, 1, 2, 4, 6, 8, 10, 12, 24, 36, and 48 h post-administration. Following 10 min of centrifugation at 6,000 g, the resultant samples were stored at −80 °C.
The developed method was effectively applied to study the pharmacokinetics in rats following oral administration of the OS extract. […] This was likely due to their low concentrations in the OS extract. Ultimately, nine components (chrysin, chrysin-7-O-β-D-glucuronide, baicalin, baicalein, oroxin A, oroxin B, oroxylin A, oroxylin A-7-O-β-D-glucuronide, and scutellarein) were successfully fitted with pharmacokinetic parameters. The average plasma concentration–time profiles of these substances are depicted in Figure 3. […] All data were presented as the mean ± standard deviation (Mean ± SD).

[2] = Stability of the analytes in rat plasma samples under storage conditions; assay type: physicochemical; details: n = 6
Description: The bioanalytical method validation was evaluated for specificity, linearity, sensitivity, precision and accuracy, recovery, matrix effect, and stability to ensure compliance with the U.S. Food and Drug Administration (FDA) guidance on precise quantitative analysis ([Center for Drug Evaluation and Research of the U.S., 2018]). The assessment of specificity was conducted by comparing the chromatograms obtained from blank plasma, blank plasma spiked with the target components, and samples gathered following the oral administration of OS extract. Calibration curves were constructed by plotting the ratio for the peak area of the analyte to IS versus the concentration, with 1/x^2 serving as the weighting factor. The lower limit of quantification (LLOQ) was defined as the concentration at which a signal to noise ratio of […] 10 was achievable. The evaluation of precision and accuracy involved the analysis of six QC samples, both within a single day and over 3 consecutive days. Accuracy was expressed as the relative error (RE), whereas precision was gauged via relative standard deviation (RSD). Extraction recovery was ascertained by juxtaposing the responses of analytes in extracted samples against those in samples that were spiked post-extraction. The matrix effect was scrutinized by determining the ratio of the responses of the analytes in post-extraction spiked samples to those in the mixed standard solution. The stability of the analytes in plasma samples was explored under diverse conditions: encompassing a 12-h period in an autosampler, a 4-h interval at room temperature, three cycles of freezing–thawing, and a 7-day duration at −80 °C.
The retention times of the analyte peaks were consistent with those in the spiked samples. […] The LLOQs for chrysin, chrysin-7-O-β-D-glucuronide, hispidulin, wogonoside, quercetin, quercetin-7-O-β-D-glucoside, baicalin, baicalein, acacetin, oroxin A, oroxin B, oroxylin A, oroxylin A-7-O-β-D-glucuronide, apigenin, and scutellarein were 1.0, 2.0, 1.0, 0.3, 1.0, 0.1, 9.0, 6.0, 0.3, 6.0, 4.0, 1.0, 2.0, 0.5, and 0.3 ng/mL, respectively. In Supplementary Table S2, the RE for accuracy is between −13.77% and 12.55%, and the RSD for precision is below 14.55% (both intra- and inter-day). […] The matrix effect varied from 60.15% to 115.53%, with RSD values below 10.54%. In Supplementary Table S4, the RSD values for stability of the analytes are found to be lower than 13.98%, meaning that these components were stable under the following conditions: encompassing a 12-h period in an autosampler, a 4-h interval at room temperature, three cycles of freezing and thawing, and a 7-day duration at −80 °C.

[3] = 3 g/kg, rat plasma collected 0.5 h after oral administration of the OS extract, read-out: Concentration printed in MRM chromatogram of plasma sample (Figure 2C)
[4] = spiked concentration 6400 ng/mL

Row | SMILES | concentration at 0.5 h [1, 3] [ng/mL] | AUC(0-t) [1] [ng·h/mL] | AUC(0-inf) [1] [ng·h/mL] | Cmax [1] [ng/mL] | half-life [1] [h] | Tmax [1] [h] | Measured, -80°C for 7 days ([2]; spiked concentration 40 ng/mL) [ng/mL] | Measured, Autosampler for 12 h ([2]; spiked concentration 40 ng/mL) [ng/mL] | Measured, Room temperature for 4 h ([2]; spiked concentration 40 ng/mL) [ng/mL] | Measured, Three freeze-thaw cycles ([2]; spiked concentration 40 ng/mL) [ng/mL] | Measured, -80°C for 7 days ([2]; spiked concentration 400 ng/mL) [ng/mL] | Measured, Autosampler for 12 h ([2]; spiked concentration 400 ng/mL) [ng/mL] | Measured, Room temperature for 4 h ([2]; spiked concentration 400 ng/mL) [ng/mL] | Measured, Three freeze-thaw cycles ([2]; spiked concentration 400 ng/mL) [ng/mL] | Measured, -80°C for 7 days [2, 4] [ng/mL] | Measured, Autosampler for 12 h [2, 4] [ng/mL] | Measured, Room temperature for 4 h [2, 4] [ng/mL] | Measured, Three freeze-thaw cycles [2, 4] [ng/mL] | other results
1 | O=c1cc(-c2ccccc2)oc2cc(O[C@@H]3O[C@H](CO)[C@@H](O)[C@H](O)[C@H]3O)c(O)c(O)c12 [Oroxin A, oroxin A] | 1300 | 3990 | 4060 | 2890 | 3.42 ± 2.51 | 0.25 | 41.12 ± 0.77 | 39.49 ± 3.13 | 38.81 ± 2.31 | 39.17 ± 2.11 | 385.78 ± 15.57 | 419.46 ± 28.69 | 388.37 ± 19.15 | 395.82 ± 21.75 | 6200.94 ± 362.67 | 6572.01 ± 389.34 | 6516.27 ± 414.24 | 6021.13 ± 378.88 | –
2 | O=c1cc(-c2ccc(O)cc2)oc2cc(O)cc(O)c12 [Apigenin, apigenin] | – | – | – | – | – | – | – | – | – | – | – | – | – | – | – | – | – | – | concentration at 0.5 h ([1]; rat, in vivo, po): 45 ng/mL; Plasma levels ([1]; rat, in vivo, po): too weak to obtain comprehensive pharmacokinetic curves; Measured, -80°C for 7 days ([2]; spiked concentration 2 ng/mL): 1.93 ± 0.09 ng/mL; Measured, Autosampler for 12 h ([2]; spiked concentration 2 ng/mL): 2.00 ± 0.16 ng/mL; Measured, Room temperature for 4 h ([2]; spiked concentration 2 ng/mL): 2.23 ± 0.11 ng/mL; Measured, Three freeze-thaw cycles ([2]; spiked concentration 2 ng/mL): 2.07 ± 0.13 ng/mL; Measured, -80°C for 7 days ([2]; spiked concentration 20 ng/mL): 20.16 ± 2.35 ng/mL; Measured, Autosampler for 12 h ([2]; spiked concentration 20 ng/mL): 20.39 ± 1.55 ng/mL; Measured, Room temperature for 4 h ([2]; spiked concentration 20 ng/mL): 18.37 ± 0.87 ng/mL; Measured, Three freeze-thaw cycles ([2]; spiked concentration 20 ng/mL): 18.24 ± 1.16 ng/mL; Measured, -80°C for 7 days ([2]; spiked concentration 320 ng/mL): 288.58 ± 21.30 ng/mL; Measured, Autosampler for 12 h ([2]; spiked concentration 320 ng/mL): 316.15 ± 18.09 ng/mL; Measured, Room temperature for 4 h ([2]; spiked concentration 320 ng/mL): 310.13 ± 19.51 ng/mL; Measured, Three freeze-thaw cycles ([2]; spiked concentration 320 ng/mL): 306.45 ± 18.15 ng/mL
3 | OCc1ccccc1O[C@@H]1O[C@H](CO)[C@@H](O)[C@H](O)[C@H]1O [salicin] | – | – | – | – | – | ~10 | – | – | – | – | – | – | – | – | – | – | – | – | –
4 | O=c1cc(-c2ccccc2)oc2cc(O[C@@H]3O[C@H](CO[C@@H]4O[C@H](CO)[C@@H](O)[C@H](O)[C@H]4O)[C@@H](O)[C@H](O)[C@H]3O)c(O)c(O)c12 [Oroxin B, oroxin B] | 1130 | 2120 | 2230 | 1990 | 3.97 ± 1.37 | 0.22 ± 0.04 | 37.76 ± 3.31 | 39.10 ± 2.32 | 41.95 ± 3.13 | 38.40 ± 1.50 | 393.06 ± 24.72 | 436.20 ± 27.56 | 430.23 ± 11.61 | 392.81 ± 19.18 | 5937.71 ± 352.01 | 6506.73 ± 286.20 | 6564.94 ± 412.78 | 6068.65 ± 216.91 | –
